{"source": "ChEMBL document CHEMBL5154929", "about": "“Optimization of the Natural Product Calothrixin A to Discover Novel Dual Topoisomerase I and II Inhibitors with Improved Anticancer Activity” (J Med Chem, 2022)", "key": {"Calf thymus DNA [1]": {"system": "Calf thymus DNA", "experiment": "Binding affinity to calf thymus DNA assessed as intercalation by measuring hypochromic shift at 292 nm by […]", "assay_type": "nucleic-acid assay", "details": "Bos taurus"}, "A-375 [2]": {"system": "A-375", "experiment": "Induction of apoptosis in human A-375 cells assessed as […] at 20 to 80 nM measured after 24 hrs by Annexin V-FITC and DAPI staining based flow cytometric analysis", "assay_type": "functional", "details": "dose 20-80 nM"}, "[3]": {"experiment": "Volume of distribution in Kunming mouse plasma at 10 mg/kg, iv administered as single dose measured after 5 to 360 mins by HPLC analysis", "assay_type": "ADME, organism-based", "details": "time 5-360 min"}, "[4]": {"experiment": "Cmax in Kunming mouse plasma at 10 mg/kg, iv administered as single dose measured after 5 to 360 mins by HPLC analysis", "assay_type": "ADME, organism-based", "set-up": "dose 10 mg/kg, time upper 360 min, time lower 5 min, route iv"}, "[5]": {"experiment": "Microsomal stability in mouse liver microsomes assessed as clearance measured at 2 ug/ml upto 60 mins in presence of NADPH generating system and UGT incubation system by phase II metabolic stability kit method", "assay_type": "ADME, Microsome", "details": "dose 2 µg/ml, read-out: CLH"}, "A-375 [6]": {"system": "A-375", "experiment": "Cytotoxicity against human A-375 cells expressing high level of topoisomerase I/II measured after 72 hrs by MTT assay", "assay_type": "functional, cell-based", "details": "A-375, 72 h"}, "[7]": {"target": "T1, DNA topoisomerase 1 (Homo sapiens) (UniProt P11387)", "T1 sequence (whole entry)": "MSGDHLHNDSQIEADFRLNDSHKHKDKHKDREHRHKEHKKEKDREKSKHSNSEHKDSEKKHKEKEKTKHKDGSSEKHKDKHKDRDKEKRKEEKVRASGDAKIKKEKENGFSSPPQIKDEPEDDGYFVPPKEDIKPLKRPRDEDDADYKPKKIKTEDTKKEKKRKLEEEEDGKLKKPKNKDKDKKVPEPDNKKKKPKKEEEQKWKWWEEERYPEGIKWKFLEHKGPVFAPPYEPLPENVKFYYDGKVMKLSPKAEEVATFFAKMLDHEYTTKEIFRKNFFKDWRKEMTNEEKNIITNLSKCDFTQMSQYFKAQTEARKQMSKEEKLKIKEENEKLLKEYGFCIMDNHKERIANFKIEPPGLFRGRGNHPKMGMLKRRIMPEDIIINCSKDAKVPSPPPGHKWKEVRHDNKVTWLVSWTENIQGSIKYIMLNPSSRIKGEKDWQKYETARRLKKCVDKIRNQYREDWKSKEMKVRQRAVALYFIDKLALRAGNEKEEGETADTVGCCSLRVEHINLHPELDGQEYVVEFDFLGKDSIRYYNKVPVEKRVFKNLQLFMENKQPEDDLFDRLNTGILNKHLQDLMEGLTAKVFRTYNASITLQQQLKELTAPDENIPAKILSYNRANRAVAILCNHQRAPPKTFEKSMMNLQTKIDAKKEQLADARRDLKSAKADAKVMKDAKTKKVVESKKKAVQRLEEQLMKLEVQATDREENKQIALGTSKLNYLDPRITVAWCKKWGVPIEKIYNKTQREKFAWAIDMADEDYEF", "experiment": "Inhibition of DNA topoisomerase I (unknown origin) relaxation activity at 100 uM incubated for 30 mins by chemiDoc system"}, "[8]": {"target": "DNA topoisomerase 2-alpha (Homo sapiens) (UniProt P11388)", "sequence (P11388 whole entry)": "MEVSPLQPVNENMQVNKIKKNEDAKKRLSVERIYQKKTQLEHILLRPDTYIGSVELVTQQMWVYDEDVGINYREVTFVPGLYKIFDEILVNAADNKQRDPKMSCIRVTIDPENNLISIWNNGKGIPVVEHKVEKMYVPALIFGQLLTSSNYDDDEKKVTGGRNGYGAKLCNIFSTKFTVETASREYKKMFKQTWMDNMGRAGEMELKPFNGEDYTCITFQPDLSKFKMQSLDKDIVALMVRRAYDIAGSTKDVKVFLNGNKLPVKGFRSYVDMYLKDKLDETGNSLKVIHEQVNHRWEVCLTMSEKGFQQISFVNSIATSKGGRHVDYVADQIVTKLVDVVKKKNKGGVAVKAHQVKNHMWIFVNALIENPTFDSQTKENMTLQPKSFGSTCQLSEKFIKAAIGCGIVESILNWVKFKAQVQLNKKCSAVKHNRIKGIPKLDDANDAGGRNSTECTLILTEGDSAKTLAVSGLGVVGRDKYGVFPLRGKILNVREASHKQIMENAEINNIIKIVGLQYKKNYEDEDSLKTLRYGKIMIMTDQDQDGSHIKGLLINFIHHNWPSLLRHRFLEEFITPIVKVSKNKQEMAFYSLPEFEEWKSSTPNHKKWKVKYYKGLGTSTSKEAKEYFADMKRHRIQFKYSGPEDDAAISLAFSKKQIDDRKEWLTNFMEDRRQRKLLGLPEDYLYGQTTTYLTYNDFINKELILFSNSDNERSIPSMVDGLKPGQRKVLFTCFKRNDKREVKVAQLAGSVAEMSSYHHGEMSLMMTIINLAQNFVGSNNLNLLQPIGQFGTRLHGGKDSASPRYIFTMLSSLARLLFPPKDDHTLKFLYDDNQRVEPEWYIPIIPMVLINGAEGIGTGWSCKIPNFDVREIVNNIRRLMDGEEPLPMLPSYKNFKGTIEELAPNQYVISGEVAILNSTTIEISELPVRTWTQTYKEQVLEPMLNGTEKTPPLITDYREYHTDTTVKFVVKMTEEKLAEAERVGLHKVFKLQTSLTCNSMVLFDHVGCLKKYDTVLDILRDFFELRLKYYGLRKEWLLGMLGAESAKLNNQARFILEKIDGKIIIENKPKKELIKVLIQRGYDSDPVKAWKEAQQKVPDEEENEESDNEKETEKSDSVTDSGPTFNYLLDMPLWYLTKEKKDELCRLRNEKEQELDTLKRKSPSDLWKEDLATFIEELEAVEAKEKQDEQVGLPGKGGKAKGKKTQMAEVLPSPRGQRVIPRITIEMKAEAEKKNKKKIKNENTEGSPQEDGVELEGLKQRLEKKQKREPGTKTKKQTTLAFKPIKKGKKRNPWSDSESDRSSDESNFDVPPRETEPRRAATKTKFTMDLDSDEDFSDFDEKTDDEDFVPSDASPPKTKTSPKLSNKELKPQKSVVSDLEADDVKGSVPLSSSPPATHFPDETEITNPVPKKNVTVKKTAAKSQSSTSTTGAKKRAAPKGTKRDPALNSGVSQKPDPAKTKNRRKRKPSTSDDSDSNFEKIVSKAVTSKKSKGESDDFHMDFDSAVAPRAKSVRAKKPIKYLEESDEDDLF", "experiment": "Poison activity at human topoisomerase II-alpha assessed as stabilization of enzyme-DNA cleavage complex by measuring nicked DNA formation at 100 uM after 60 mins by agarose gel electrophoresis method"}, "HCT-116 [9]": {"system": "HCT-116", "experiment": "Antiproliferative activity against doxorubicin resistant human HCT-116 cells measured after 72 hrs by MTT assay", "assay_type": "functional, cell-based", "details": "HCT-116, 72 h"}, "[10]": {"experiment": "In vivo acute toxicity in Balb/C mouse assessed as pathological damage in spleen at 50 mg/kg, iv administered once per 2 days for 7 days measured 24 hrs after last dose by H and E staining method", "assay_type": "organism-based", "details": "168 h, time 7 day"}, "[11]": {"experiment": "In vivo acute toxicity in Balb/C mouse assessed as pathological damage in lung at 50 mg/kg, iv administered once per 2 days for 7 days measured 24 hrs after last dose by H and E staining method", "assay_type": "organism-based", "details": "168 h, time 7 day"}, "[12]": {"experiment": "In vivo acute toxicity in Balb/C mouse assessed as pathological damage in kidney at 50 mg/kg, iv administered once per 2 days for 7 days measured 24 hrs after last dose by H and E staining method", "assay_type": "organism-based", "details": "168 h, time 7 day"}, "HCT-116 [13]": {"system": "HCT-116", "experiment": "Inhibition of colony formation in human HCT-116 cells at 20 to 40 nM incubated for 48 hrs by crystal violet staining method", "assay_type": "functional, cell-based", "details": "dose 20-40 nM"}, "MCF7": {"system": "MCF7", "experiment": "Inhibition of colony formation in human MCF7 cells at 20 to 40 nM incubated for 48 hrs by crystal violet staining method", "assay_type": "functional, cell-based", "details": "dose 20-40 nM"}, "A-375 [14]": {"system": "A-375", "experiment": "Antimigratory activity in human A-375 cells assessed as reduction in cell migration at 10 to 40 nM incubated for 24 hrs by crystal violet staining method", "assay_type": "functional, cell-based", "details": "dose 10-40 nM"}, "A-375 [15]": {"system": "A-375", "experiment": "Induction of cell cycle arrest in human A-375 cells assessed as accumulation of cells at S phase at 80 nM incubated for 24 hrs by PI based flow cytometric analysis (RVB = 26.73%)", "assay_type": "functional"}, "A-375 [16]": {"system": "A-375", "experiment": "Induction of cell cycle arrest in human A-375 cells assessed as accumulation of cells at G1 phase at 20 nM incubated for 24 hrs by PI based flow cytometric analysis (RVB = 52.94%)", "assay_type": "functional"}, "A-375 [17]": {"system": "A-375", "experiment": "Induction of cell cycle arrest in human A-375 cells assessed as accumulation of cells at S phase at 20 nM incubated for 24 hrs by PI based flow cytometric analysis (RVB = 26.73%)", "assay_type": "functional"}, "A-375 [18]": {"system": "A-375", "experiment": "Induction of cell cycle arrest in human A-375 cells assessed as accumulation of cells at G1 phase at 40 nM incubated for 24 hrs by PI based flow cytometric analysis (RVB = 52.94%)", "assay_type": "functional"}, "A-375 [19]": {"system": "A-375", "experiment": "Induction of apoptosis in human A-375 cells at 40 nM measured after 24 hrs by Annexin V-FITC and DAPI staining based flow cytometric analysis", "assay_type": "functional"}, "[20]": {"experiment": "Toxicity in BALB/c nude mouse xenografted with human A-375 cells assessed as tolerability treated after 7 days of tumor implantation on right flank subcutaneously at 20 mg/kg, iv administered once per 2 days for 14 days measured once every two days", "assay_type": "organism-based", "details": "in vivo, 336 h, time 14 day"}, "A-375 [21]": {"system": "A-375", "experiment": "In vivo induction of apoptosis in human A-375 cells xenografted in BALB/c nude mouse treated after 7 days of tumor implantation on right flank subcutaneously at 10 to 20 mg/kg, iv administered once per 2 days for 14 days by measuring TUNEL positive cells under a light microscope", "assay_type": "functional, organism-based", "details": "dose 10-20 mg/kg, time 14.0 day"}, "A-375 [22]": {"system": "A-375", "experiment": "In vivo induction of apoptosis in human A-375 cells xenografted in BALB/c nude mouse assessed as increase in C-caspase-3 level treated after 7 days of tumor implantation on right flank subcutaneously at 10 to 20 mg/kg, iv administered once per 2 days for 14 days by measuring TUNEL positive cells under a light microscope", "assay_type": "functional, organism-based", "details": "dose 10-20 mg/kg, time 14.0 day"}, "A-375 [23]": {"system": "A-375", "experiment": "In vivo induction of apoptosis in human A-375 cells xenografted in BALB/c nude mouse assessed as […] treated after 7 days of tumor implantation on right flank subcutaneously at 10 to 20 mg/kg, iv administered once per 2 days for 14 days by measuring TUNEL positive cells under a light microscope", "assay_type": "functional, organism-based", "details": "dose 10-20 mg/kg, time 14.0 day"}, "Calf thymus DNA [24]": {"system": "Calf thymus DNA", "experiment": "Binding affinity to calf thymus DNA assessed as intercalation by measuring hypochromic shift at 432 nm by […]", "assay_type": "nucleic-acid assay", "details": "Bos taurus"}}, "note": "Activity calls are given as the source filed them. No cut-off for these calls is given here.", "data": [{"smiles": "O=C1c2c[n+]([O-])c3ccccc3c2C(=O)c2c1c1ccccc1n2Cc1cn([C@@H]2C[C@H](O)[C@@H](CO)O2)nn1", "values": [{"measurement": "Activity", "setting": "Calf thymus DNA [1]", "result": 44, "unit": "%"}, {"measurement": "Activity", "setting": "A-375 [2]", "result": 38.36, "unit": "%"}, {"measurement": "Vd", "setting": "[3]", "result": 0.234, "unit": "L/kg"}, {"measurement": "Cmax", "setting": "[4]", "result": 27000, "unit": "ng/mL"}, {"measurement": "microsomal CLint at 2 ug/ml", "setting": "[5]", "result": 35, "unit": "µL/min/mg"}, {"measurement": "IC50", "setting": "A-375 [6]", "result": 20, "unit": "nM"}, {"measurement": "inhibition", "setting": "[7]", "result": "Active"}, {"measurement": "Activity", "setting": "[8]", "result": "Active"}, {"measurement": "IC50", "setting": "HCT-116 [9]", "result": 70, "unit": "nM"}, {"measurement": "Activity", "setting": "[10]", "result": "Non-Toxic"}, {"measurement": "Activity", "setting": "[11]", "result": "Non-Toxic"}, {"measurement": "Activity", "setting": "[12]", "result": "Non-Toxic"}, {"measurement": "inhibition", "setting": "HCT-116 [13]", "result": "Active"}, {"measurement": "inhibition", "setting": "MCF7", "result": "Active"}, {"measurement": "Activity", "setting": "A-375 [14]", "result": "Active"}, {"measurement": "Activity", "setting": "A-375 [15]", "result": 58.13, "unit": "%"}, {"measurement": "Activity", "setting": "A-375 [16]", "result": 32.45, "unit": "%"}, {"measurement": "Activity", "setting": "A-375 [17]", "result": 38.36, "unit": "%"}, {"measurement": "Activity", "setting": "A-375 [18]", "result": 28.94, "unit": "%"}, {"measurement": "Activity", "setting": "A-375 [19]", "result": 23.26, "unit": "%"}, {"measurement": "Activity", "setting": "[20]", "result": "Non-Toxic"}, {"measurement": "Activity", "setting": "A-375 [21]", "result": "Active"}, {"measurement": "Activity", "setting": "A-375 [22]", "result": "Active"}, {"measurement": "Activity", "setting": "A-375 [23]", "result": "Active"}, {"measurement": "Activity", "setting": "Calf thymus DNA [24]", "result": 32, "unit": "%"}]}]}
